Where a name gives a salt, the structure may show the parent alone.

The assay has as its target NMDA receptor. Briefly: MK-801 binding test ([3H]MK-801-binding assay, rat membrane specimen). The following applies: NMDA receptor affinity, [3H]MK-801 4 nM in assay, Ki computed from IC50. The method, then:
1) Preparation of Specimens of Rat Meninges:
The whole brain was taken out from 10-week-age SD rats (30 heads, by Nippon SLC), and the cerebellum was removed from it. A 0.32 M sucrose solution was added to the part containing the cerebrum, cut in a mixer, and homogenized with a Teflon™ homogenizer. This was centrifuged at 2800 rpm and 4° C. for 15 minutes, and the resulting supernatant was again centrifuged at 15000 g and 4° C. for 20 minutes. The pellets were suspended in 50 mM Tris-HCL (pH 7.5) containing 0.08% Triton X-100, and kept statically on ice for 30 minutes, then centrifuged at 15000 g and 4° C. for 20 minutes. The pellets were suspended in 50 mM Tris-HCl (pH 7.5) added thereto, and centrifuged at 15000 g and 4° C. for 20 minutes. 50 mM Tris-HCl (pH 7.5) was again added to the pellets, and centrifuged in the same manner as before. The pellets were suspended in 20 ml of 50 mM Tris-HCl (pH 7.5) added thereto, and homogenized with a Teflon™ homogenizer. The membrane specimen was divided into small tubes and stored in a deep freezer (−80° C.). Before use, this washed twice with 5 mM Tris-HCl (pH 7.5) of five times that of the membrane specimen. Its concentration was controlled at 1 mg protein/ml with 5 mM Tris-HCl (pH 7.5) added to it, and this was used for assay.
50 μl of the rat membrane specimen (1 mg protein/ml) was added to a solution of a test compound dissolved in 1 μl of DMSO.
Take `CN1CCC(C2(O)c3ccccc3CC2(C)C)CC1` (stereo not shown) [Example 1, 2,2-Dimethyl-1-(1-methylpiperidin-4-yl)indan-1-ol monofumarate]: the Ki (commonly a measure of affinity in units of concentration, obtained from inhibition or displacement) came to 1400 nM.
With `Cc1ccc2c(c1)C(O)(C1CCN(C)CC1)C(C)(C)C2` (stereo not shown) [Example 6, 2,2,6-trimethyl-1-(1-methylpiperidin-4-yl)indan-1-ol], the Ki worked out at 880 nM. Compared with the last compound, the Ki is about 1.6-fold lower.
With `CN1CCC(C2(O)c3cc(F)ccc3CC2(C)C)CC1` (stereo not shown) [Example 9] the figure was 930 nM; with `CN1CCC(C2(O)c3ccc(Br)cc3CC2(C)C)CC1` (stereo not shown) [Example 15], 860 nM; with `CN1CCC(C2(O)c3cc(Cl)c(F)cc3CC2(C)C)CC1` (stereo not shown) [Example 28], 1000 nM.
For `CN1CCC(C2(O)c3cc(Br)cc(F)c3CC2(C)C)CC1` (stereo not shown) [Example 32] the value was 440 nM.
For `CN1CCC(C2(O)c3c(ccc(F)c3Br)CC2(C)C)CC1` (stereo not shown) [Example 34] the value was 1800 nM.
Take `CN1CCC(C2(O)c3c(Br)ccc(F)c3CC2(C)C)CC1` (stereo not shown) [Example 36]: the Ki was 1900 nM. The Ki values of the last two compounds are within 1.5-fold of each other.
Take `COc1c(F)ccc2c1C(O)(C1CCN(C)CC1)C(C)(C)C2` (stereo not shown) [Example 44]: the Ki stood at 930 nM.
Regarding `CN1CCC(C2(O)c3ccccc3CCC2(C)C)CC1` (stereo not shown) [Example 53], affinity was put at a Ki of 4100 nM.
With `COc1ccc(F)c2c1C(O)(C1CCN(C)CC1)C(C)(C)C2` (stereo not shown) [Example 85] the figure was 6200 nM.
With `CCOc1c(F)ccc2c1C(O)(C1CCN(C)CC1)C(C)(C)C2` (stereo not shown) [Example 98] the figure was 8400 nM; with `COc1cc(F)c2c(c1OC)C(O)(C1CCN(C)CC1)C(C)(C)C2` (stereo not shown) [Example 101], 2100 nM.
With `COc1c(F)c(F)cc2c1C(O)(C1CCN(C)CC1)C(C)(C)C2` (stereo not shown) [Example 108] the figure was 5600 nM; with `COc1c(C#N)cc(F)c2c1C(O)(C1CCN(C)CC1)C(C)(C)C2` (stereo not shown) [Example 113], 900 nM.
Compound `Cc1ccc2c(c1)C(O)(CC(C)(C)N)C(C)(C)C2` (stereo not shown) [Example 131, 1-(2-Amino-2-methylpropyl)-2,2,6-trimethylindan-1-ol fumarate] had a Ki of 4800 nM.
In turn, `CN1CCC(C2(O)c3c(c(F)cc4c3OCC4)CC2(C)C)CC1` (stereo not shown) [Example 139, 5-Fluoro-7,7-dimethyl-8-(1-methylpiperidin-4-yl)-2,6,7,8-tetrahydro-2H-indeno[4,5-b]furan-8-ol fumarate] came in with a Ki of 5000 nM.
For `CN1CCC(C23OCCOc4c(F)ccc(c42)CC3(C)C)CC1` (stereo not shown) [Example 143, 4-(9-Fluoro-5,5-dimethyl-2,3,5,6-tetrahydro-4aH-indeno[1,7-ef][1,4]dioxepin-4a-yl-1-methylpiperidine fumarate] the value was 700 nM; for `COc1c(F)ccc2c1C1(CCC(CN3CCCC3)O1)C(C)(C)C2` (stereo not shown) [Example 145], 8400 nM.

For the origin of these results see patent US20070197594A1, “Cyclic amine derivative or salt thereof” (ASTELLAS PHARMA INC., priority 2004, published 2007).
